Where a name gives a salt, the structure may show the parent alone.
tested on: not given; assay: not given; settings: not given

| melting point | Structure (SMILES) |
| --- | --- |
| 75 to 77 °C | CN1CCC(COc2ccc(Cl)nc2)C1 (stereo not drawn) (as salt: toluenesulfonate) [Example 32, 2-Chloro-5-(1-methylpyrrolidinyl-3-methoxy)pyridine p-toluenesulfonate] |
| 60 °C (dec.) | Cl.c1ccc(-c2cncc(O[C@H]3CCNC3)c2)cc1 [Example 15, 3-(3-(S)-Pyrrolidinyloxy)-5-phenylpyridine hydrochloride] |
| 82 to 84 °C | Clc1cc(OCC2CCNC2)cnc1Cl (stereo not drawn) (as salt: toluenesulfonate) [Example 33, 2,3-Dichloro-5-(pyrrolidinyl-3-methoxy)pyridine p-toluenesulfonate] |
| 60 °C (dec.) | Cl.c1ccc(-c2cncc(O[C@@H]3CCNC3)c2)cc1 [Example 17, 3-(3-(R)-Pyrrolidinyloxy)-5-phenylpyridine hydrochloride] |
| 88 to 90 °C | CN1CC[C@H](Oc2cncc(-c3ccccc3)c2)C1.Cl [Example 16, 3-(1-Methyl-3-(S)-pyrrolidinyloxy)-5-phenylpyridine hydrochloride] |
| 180 °C (dec.) | CN1CC[C@H](Oc2cnc(Cl)c(Br)c2)C1.Cl [Example 23, 3-(1-N-Methyl-3-(S)-pyrrolidinyloxy)-5-bromo-6-chloropyridine hydrochloride] |
| 201 to 203 °C | c1csc(-c2cncc(O[C@@H]3CCNC3)c2)c1 (as salt: hydrochloride) [Example 19, 3-(3-(R)-Pyrrolidinyloxy)-5-thienylpyridine hydrochloride] |
| 65 °C (dec.) | Cl.Clc1ccc(-c2cncc(O[C@H]3CCNC3)c2)cc1 [Example 21, 3-(3-(S)-Pyrrolidinyloxy)-5-(4-chlorophenyl)pyridine hydrochloride] |
| 178 to 180 °C | Cl.Clc1ncc(O[C@H]2CCNC2)cc1Br [Example 22, 3-(3-(S)-Pyrrolidinyloxy)-5-bromo-6-chloropyridine hydrochloride] |
| 121 to 122 °C | Fc1ccc(OC2CCCCNC2)cn1 (stereo not drawn) (as salt: hydrochloride) [Example 30, 3-(6-Fluoropyridinyl-3-oxy)perhydroazepine hydrochloride] |
| 208 °C (dec.) | Cl.Nc1cccc(-c2cncc(O[C@H]3CCNC3)c2)c1 [Example 14, 3-(3-(S)-Pyrrolidinyloxy)-5-(3-aminophenyl)pyridine hydrochloride] |

Further lines, the compound ahead of its results:

| Structure (SMILES) | melting point |
| --- | --- |
| CCCCCCC#Cc1cncc(O[C@H]2CCNC2)c1.Cl [Example 8, 3-(3-(S)-pyrrolidinyloxy)-5-(1-octynyl)pyridine hydrochloride] | 66 to 68 °C |
| CN1CC[C@@H](Oc2cncc(C=Cc3ccncc3)c2)C1.Cl [Example 5, 3-(1-Methyl-3-(R)-pyrrolidinyloxy)-5-(2-(4-pyridyl)ethenyl)pyridine hydrochloride] | 88 to 90 °C |
| CC(C)(C)C=CC=Cc1cncc(O[C@H]2CCNC2)c1 (as salt: hydrochloride) [Example 7, 3-(3-(S)-Pyrrolidinyloxy-5-(5,5-dimethylhexadienyl)pyridine hydrochloride] | 148 °C (dec.) |
| Cl.c1ncc(-c2cncc(O[C@@H]3CCNC3)c2)cn1 [Example 13, 3-(3-(R)-Pyrrolidinyloxy)-5-(5-pyrimidinyl)pyridine hydrochloride] | 67 to 69 °C |
| Cl.c1ncc(-c2cncc(O[C@H]3CCNC3)c2)cn1 [Example 11, 3-(3-(S)-pyrrolidinyloxy)-5-(5-pyrimidyl)pyridine hydrochloride] | 60 to 62 °C |
| CCCCCCC#Cc1cncc(O[C@@H]2CCN(C)C2)c1.Cl [Example 10, 3-(1-N-Methyl-3-(R)-pyrrolidinyloxy)-5-(1-octynyl)pyridine hydrochloride] | 133 to 135 °C |
| Clc1ncc(OCC2CCNC2)cc1Br (stereo not drawn) (as salt: toluenesulfonate) [Example 25, 3-Bromo-2-chloro-5-(3-pyrrolidinylmethoxy)pyridine toluenesulfonate] | 105 to 107 °C |
| CN1CC[C@H](Oc2cnc(Cl)c(C=Cc3ccncc3)c2)C1.Cl | 106 to 108 °C |

tested on: mice; assay: mouse hot plate paradigm (analgesia); assay type: in vivo; settings: mouse hot plate 55° C., intraperitoneal, dosed 30 minutes prior to testing, increase in tenth jump latency relative to control
Procedure: An in vivo protocol was utilized to determine the effectiveness of nicotinic acetylcholine receptor ligands as analgesic agents in the mouse hot plate paradigm. Separate groups of mice, (n=8/group) were utilized for each dose group. All drugs were administered by the intraperitoneal route of administration. Test drugs were dissolved in water to make a 6.2 mM stock solution. Animals were dosed with this solution (10 mL/kg body weight) for a 62 micromol/kg dose. Lower doses were administered similarly, following serial dilution of the stock solution in half-log increments. Animals were dosed 30 minutes prior to testing in the hot plate. The hot-plate utilized was an automated analgesia monitor (Model #AHP16AN, Omnitech Electronics, Inc. of Columbus, Ohio). The temperature of the hot plate was maintained at 55° C. and a cut-off time of 180 seconds was utilized. Latency until the tenth jump was recorded as the dependent measure. An increase in the tenth jump latency relative to the control was considered an effect.

| Structure (SMILES) | minimally effective dose (MED), Dosage [µmol/kg] |
| --- | --- |
| Clc1ncc(OCC2CCNC2)cc1Br (stereo not drawn) [Example 25, 3-Bromo-2-chloro-5-(3-pyrrolidinylmethoxy)pyridine toluenesulfonate] | 6.2 |
| Cc1ccc(S(=O)(=O)O)cc1.Cc1cncc(OCC2CCNC2)c1 (stereo not drawn) [Example 27, 5-methyl-3-(3-pyrrolidinylmethoxy)pyridine tosylate] | 19 |
| Cc1ccc(OC2CCCCNC2)cn1 (stereo not drawn) [Example 29, 3-(6-Methylpyridinyl-3-oxy)perhydroazepine dihydrochloride] | 62 |
| CN1CCC(COc2cnc(Cl)c(Br)c2)C1 (stereo not drawn) [Example 26, 3-Bromo-2-chloro-5-(1-methyl-3-pyrrolidinylmethoxy) pyridine toluenesulfonate] | 62 |

molecular target: neuronal nicotinic acetylcholine receptors (Rattus norvegicus, UniProt P09483+P12390); assay: [3H]-cytisine binding to neuronal nicotinic acetylcholine receptors, crude synaptic membranes from whole rat brain; settings: [3H]-CYT 1.25 nM, 60 minutes at 4° C., Ki from IC50 by Cheng and Prusoff correction
Procedure: The in vitro protocols for determination of nicotinic acetylcholine channel receptor binding potencies of ligands was determined as follows.
Binding of [^3H]-cytisine ([^3H]-CYT) to neuronal nicotinic acetylcholine receptors was accomplished using crude synaptic membrane preparations from whole rat brain (Pabreza et al., Molecular Pharmacol., 1990, v. 39, p. 9). Washed membranes were stored at −80° C. prior to use. Frozen aliquots were slowly thawed and resuspended in 20 volumes of buffer (containing: 120 mM NaCl, 5 mM KCl, 2 mM MgCl2, 2 mM CaCl2 and 50 mM Tris-Cl, pH 7.4 at 4° C.). After centrifuging at 20,000×g for 15 minutes, the pellets were resuspended in 30 volumes of buffer.
The test compounds were dissolved in water to make 10 mM stock solutions. […]
Homogenate (containing 125-150 μg protein) was added to triplicate tubes containing the range of concentrations of test compound described above and [^3H]-CYT (1.25 nM) in a final volume of 500 μl. […] The filters are counted in 4 mL of Ecolume® (ICN). Nonspecific binding was determined in the presence of 10 μM (−)-nicotine and values were expressed as a percentage of total binding. IC50 values were determined with a four-parameter non-linear regression and IC50 values were converted to Ki values using the Cheng and Prusoff correction (Ki=IC50/(1+[ligand]/Kd of ligand).

Sequence of neuronal nicotinic acetylcholine receptors (P09483 31-630): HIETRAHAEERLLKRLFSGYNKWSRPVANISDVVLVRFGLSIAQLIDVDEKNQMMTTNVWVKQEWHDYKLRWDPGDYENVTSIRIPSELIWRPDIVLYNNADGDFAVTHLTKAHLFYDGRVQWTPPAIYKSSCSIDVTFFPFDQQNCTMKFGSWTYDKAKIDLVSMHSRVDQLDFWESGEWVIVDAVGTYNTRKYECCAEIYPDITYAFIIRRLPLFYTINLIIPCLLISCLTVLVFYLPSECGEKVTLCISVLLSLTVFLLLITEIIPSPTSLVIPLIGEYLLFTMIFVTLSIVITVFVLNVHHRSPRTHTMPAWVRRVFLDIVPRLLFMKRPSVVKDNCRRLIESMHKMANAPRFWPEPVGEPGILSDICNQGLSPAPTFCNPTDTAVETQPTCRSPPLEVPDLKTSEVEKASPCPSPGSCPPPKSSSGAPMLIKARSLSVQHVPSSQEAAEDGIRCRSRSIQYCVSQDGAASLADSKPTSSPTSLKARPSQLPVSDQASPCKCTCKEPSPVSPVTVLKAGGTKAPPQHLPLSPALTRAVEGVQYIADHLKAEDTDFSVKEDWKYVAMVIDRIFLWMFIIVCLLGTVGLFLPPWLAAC
Sequence of neuronal nicotinic acetylcholine receptors (P12390 25-500): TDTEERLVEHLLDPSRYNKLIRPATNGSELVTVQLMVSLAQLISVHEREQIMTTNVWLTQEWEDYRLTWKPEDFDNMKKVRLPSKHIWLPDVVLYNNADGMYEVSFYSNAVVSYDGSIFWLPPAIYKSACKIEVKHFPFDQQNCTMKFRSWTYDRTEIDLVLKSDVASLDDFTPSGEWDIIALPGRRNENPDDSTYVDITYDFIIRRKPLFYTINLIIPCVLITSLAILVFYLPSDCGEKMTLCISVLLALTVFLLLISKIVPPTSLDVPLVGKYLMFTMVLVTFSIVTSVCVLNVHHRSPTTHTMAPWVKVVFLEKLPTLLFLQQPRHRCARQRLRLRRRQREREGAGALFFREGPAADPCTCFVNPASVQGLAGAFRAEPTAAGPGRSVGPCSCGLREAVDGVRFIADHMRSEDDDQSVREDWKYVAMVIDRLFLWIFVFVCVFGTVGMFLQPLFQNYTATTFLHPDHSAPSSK

| Structure (SMILES) | Ki [nM] |
| --- | --- |
| Clc1ncc(OC[C@@H]2CCNC2)cc1Br [Example 35, 3-Bromo-2-chloro-5-(3-(R)-pyrrolidinylmethoxy)pyridine 4-methyl benzenesulfonate] | 0.021 |

From patent publication US20020151712A1, “3-pyrrolidinyloxy-3'-pyridyl ether compounds useful for controlling chemical synaptic transmission” (priority 1999, published 2002)
